18 compounds from PubChem BioAssay AID328 (DTP/NCI, 2004) can be followed below.

The structures appear in SMILES notation. Several values for one entry are separate records, joined by “and”; a condition that tells them apart may be missing. Equal entries are not always repeated. Inconclusive results and toxic doses are left out.

This assay has as its system BDF1 mice, P388 leukemia ip, median survival T/C. Briefly: NCI In Vivo Anticancer Drug Screen. Data for tumor model P388 Leukemia (intraperitoneal) in B6D2F1 (BDF1) mice. Conditions: endpoint: median survival time, higher = longer survival. The procedure:
The antitumor activity of compounds was measured in mice bearing transplantable tumors. Survival or tumor size were measured and the results are expressed as the measurement made in the treated group (T) divided by the measurement made in the vehicle treated control group (C). The tumor model used in this assay is P388 Leukemia (intraperitoneal) in B6D2F1 (BDF1) mice

The mark [1] stands for this setting: dose: 100.0 mg/kg/injection, schedule: Q01DX009 (ip), vehicle: saline with Tween-80.
The mark [2] stands for this setting: dose: 200.0 mg/kg/injection, schedule: Q01DX009 (ip), vehicle: saline with Tween-80.
Setting [3] is: dose: 100.0 mg/kg/injection, schedule: Q04DX003 (ip), vehicle: saline with Tween-80.
Where [4] appears, read: dose: 200.0 mg/kg/injection, schedule: Q04DX003 (ip), vehicle: saline with Tween-80.
[5] abbreviates: dose: 100.0 mg/kg/injection, schedule: Q01DX009 (ip), vehicle: Klucel (hydroxypropylcellulose) (HPC).
[6] abbreviates: dose: 100.0 mg/kg/injection, schedule: Q04DX003 (ip), vehicle: Klucel (hydroxypropylcellulose) (HPC).
Setting [7] is: dose: 200.0 mg/kg/injection, schedule: Q04DX003 (ip), vehicle: Klucel (hydroxypropylcellulose) (HPC).
[8] abbreviates: dose: 50.0 mg/kg/injection, schedule: Q01DX009 (ip), vehicle: saline with Tween-80.
Where [9] appears, read: dose: 25.0 mg/kg/injection, schedule: Q01DX009 (ip), vehicle: saline with Tween-80.

With `CCCC(C#N)(CCCl)c1ccccc1` (configuration not stated), the T/C by setting is: under setting [1], 100 % of control; under setting [2], 108 % of control; (dose: 400.0 mg/kg/injection, schedule: Q01DX009 (ip), vehicle: saline with Tween-80) 112 % of control.

Take `CC1CCCN2C(=O)CN(N3CCOCC3)CC(=O)N12` (configuration not stated): under “dose: 100.0 mg/kg/injection, schedule: Q04DX002 (ip), vehicle: saline with Tween-80”, the T/C is 121 % of control.

`CC1(C)N=C(N)N=C(N)N1c1ccc(CCc2ccccc2)c(Cl)c1`: the T/C (dose: 4.0 mg/kg/injection, schedule: Q01DX009 (ip), vehicle: saline with Tween-80) is 122 % of control.

Regarding `[Ni+2].[SH2+]C([SH2+])=Nc1ccccc1.[SH2+]C([SH2+])=Nc1ccccc1.c1ccc(C[P+](c2ccccc2)(c2ccccc2)c2ccccc2)cc1`, the T/C (dose: 0.5 mg/kg/injection, schedule: Q01DX009 (ip), vehicle: saline) was 115 % of control; the T/C (dose: 1.0 mg/kg/injection, schedule: Q01DX009 (ip), vehicle: saline) is 95 % of control and 120 % of control; the T/C (dose: 1.0 mg/kg/injection, schedule: Q04DX003 (ip), vehicle: other) is 95 % of control; the T/C (dose: 3.0 mg/kg/injection, schedule: Q01DX009 (ip), vehicle: saline) is 118 % of control and 120 % of control; the T/C (dose: 3.0 mg/kg/injection, schedule: Q04DX003 (ip), vehicle: other) is 108 % of control; the T/C (dose: 4.0 mg/kg/injection, schedule: Q01DX009 (ip), vehicle: saline) was 100 % of control. The T/C reads like this: (dose: 6.0 mg/kg/injection, schedule: Q01DX009 (ip), vehicle: saline) 104 % of control and 105 % of control; (dose: 6.0 mg/kg/injection, schedule: Q04DX003 (ip), vehicle: other) 95 % of control; (dose: 9.0 mg/kg/injection, schedule: Q01DX009 (ip), vehicle: saline) 110 % of control and 118 % of control; (dose: 10.0 mg/kg/injection, schedule: Q01DX009 (ip), vehicle: Klucel (hydroxypropylcellulose) (HPC)) 115 % of control.

Consider `Cc1cccnc1N1CCNC1=O`, for which the T/C is 90 % of control (dose: 25.0 mg/kg/injection, schedule: Q04DX003 (ip), vehicle: saline); 90 % of control (dose: 50.0 mg/kg/injection, schedule: Q04DX003 (ip), vehicle: saline); 100 % of control (dose: 100.0 mg/kg/injection, schedule: Q04DX003 (ip), vehicle: saline).

On to `O=c1[nH]cnc2c1nc1n2CCC1`, for which the T/C is, setting by setting: (dose: 50.0 mg/kg/injection, schedule: Q04DX003 (ip), vehicle: saline with Tween-80) 90 % of control; under setting [3], 90 % of control; under setting [4], 113 % of control.

As to `CC(=O)Nc1cc(C)c(C)cc1[N+](=O)[O-]`, the T/C reads like this: under setting [5], 95 % of control; under setting [6], 104 % of control; (dose: 200.0 mg/kg/injection, schedule: Q01DX009 (ip), vehicle: Klucel (hydroxypropylcellulose) (HPC)) 109 % of control; under setting [7], 90 % of control; (dose: 400.0 mg/kg/injection, schedule: Q01DX009 (ip), vehicle: Klucel (hydroxypropylcellulose) (HPC)) 95 % of control; (dose: 400.0 mg/kg/injection, schedule: Q04DX003 (ip), vehicle: Klucel (hydroxypropylcellulose) (HPC)) 86 % of control.

Turning to `COc1cc2c(c(OC)c1OC)-c1ccc(OC)c(=O)cc1[C@@H](NC(C)=O)CC2`, the T/C runs as follows: (dose: 0.04 mg/kg/injection, schedule: Q01DX010 (ip), vehicle: saline) 122 % of control; (dose: 0.13 mg/kg/injection, schedule: Q01DX009 (ip), vehicle: water) 171 % of control; (dose: 0.16 mg/kg/injection, schedule: Q01DX010 (ip), vehicle: saline) 181 % of control; (dose: 0.25 mg/kg/injection, schedule: Q01DX009 (ip), vehicle: water) 173 % of control; (dose: 0.32 mg/kg/injection, schedule: Q01DX010 (ip), vehicle: saline) 154 % of control and 181 % of control; (dose: 0.64 mg/kg/injection, schedule: Q01DX010 (ip), vehicle: saline) 163 % of control. Besides, the T/C was 153 % of control (dose: 250.0 micrograms/kg/injection, schedule: Q01DX009 (ip), vehicle: saline); 235 % of control (dose: 500.0 micrograms/kg/injection, schedule: Q01DX009 (ip), vehicle: saline); 222 % of control (dose: 1000.0 micrograms/kg/injection, schedule: Q01DX009 (ip), vehicle: saline).

Consider `OCC1OC(O)C(O)C(O)C1O` (configuration not stated), for which the T/C was 124 % of control (dose: 500.0 mg/kg/injection, schedule: Q01DX009 (ip), vehicle: saline); 100 % of control (dose: 500.0 mg/kg/injection, schedule: Q04DX003 (ip), vehicle: saline); 117 % of control (dose: 1000.0 mg/kg/injection, schedule: Q01DX009 (ip), vehicle: saline); 100 % of control (dose: 1000.0 mg/kg/injection, schedule: Q04DX003 (ip), vehicle: saline); 120 % of control (dose: 2000.0 mg/kg/injection, schedule: Q01DX009 (ip), vehicle: saline); 100 % of control (dose: 2000.0 mg/kg/injection, schedule: Q04DX003 (ip), vehicle: saline). The T/C runs as follows: (dose: 4000.0 mg/kg/injection, schedule: Q01DX009 (ip), vehicle: saline) 100 % of control; (dose: 4000.0 mg/kg/injection, schedule: Q04DX003 (ip), vehicle: saline) 102 % of control.

On to `Nc1nc(N)c2nc(/C=C/c3ccc4c(c3)OCO4)cnc2n1`, for which the T/C under setting [8] is 88 % of control, the T/C under setting [1] was 88 % of control and the T/C under setting [2] is 88 % of control.

For the compound `Cc1ccc(NC(=O)Nc2ccccc2C(F)(F)F)cc1NC(=O)Nc1ccccc1C(F)(F)F`, the T/C was 100 % of control under setting [3]; 100 % of control under setting [4]; 104 % of control (dose: 400.0 mg/kg/injection, schedule: Q04DX003 (ip), vehicle: saline with Tween-80).

As to `CCCCNC(=O)OC`, the T/C is 100 % of control (dose: 50.0 mg/kg/injection, schedule: Q01DX009 (ip), vehicle: Klucel (hydroxypropylcellulose) (HPC)); 100 % of control (dose: 50.0 mg/kg/injection, schedule: Q04DX003 (ip), vehicle: Klucel (hydroxypropylcellulose) (HPC)); 100 % of control under setting [5]; 95 % of control under setting [6]; 115 % of control under setting [7].

For the compound `CC1CCCCN1CCNc1ccc(CO)c2sc3ccccc3c(=O)c12` (configuration not stated), the T/C was 115 % of control under setting [9]; 119 % of control (dose: 44.0 mg/kg/injection, schedule: Q01DX009 (ip), vehicle: saline with Tween-80); 119 % of control under setting [8]; 192 % of control and 210 % of control under setting [1]; 278 % of control (dose: 150.0 mg/kg/injection, schedule: Q01DX009 (ip), vehicle: saline with Tween-80); 97 % of control under setting [2].

As for `C=C(C)C(=O)NCC(=O)NC(CC(C)C)C(=O)Oc1ccc([N+](=O)[O-])cc1` (configuration not stated), the T/C under setting [9] was 97 % of control, the T/C under setting [8] is 97 % of control and the T/C under setting [1] is 90 % of control.

On to `COc1ccc(/C(=C\S(C)=O)c2cccs2)cc1` (configuration not stated), for which the T/C runs as follows: under setting [8], 105 % of control; under setting [1], 107 % of control; under setting [2], 100 % of control.

Consider `Cc1c(/C=C(\C#N)c2ccc([N+](=O)[O-])cc2)c(=O)n(-c2ccccc2)n1C`, for which the T/C runs as follows: (dose: 100.0 mg/kg/injection, schedule: Q04DX003 (ip), vehicle: gum acacia) 103 % of control; (dose: 200.0 mg/kg/injection, schedule: Q04DX003 (ip), vehicle: gum acacia) 100 % of control; (dose: 400.0 mg/kg/injection, schedule: Q04DX003 (ip), vehicle: gum acacia) 100 % of control.

For the compound `CC(=O)Nc1cc(N(CCOS(C)(=O)=O)CCOS(C)(=O)=O)ccc1N=O`, the T/C is 179 % of control (dose: 0.7 mg/kg/injection, schedule: Q04DX003 (ip), vehicle: saline with Tween-80); 212 % of control (dose: 1.1 mg/kg/injection, schedule: Q04DX003 (ip), vehicle: saline with Tween-80); 208 % of control (dose: 1.6 mg/kg/injection, schedule: Q04DX003 (ip), vehicle: saline with Tween-80); 150 % of control and 191 % of control (dose: 1.65 mg/kg/injection, schedule: Q04DX003 (ip), vehicle: saline with Tween-80); 175 % of control (dose: 2.5 mg/kg/injection, schedule: Q04DX003 (ip), vehicle: saline with Tween-80); 104 % of control (dose: 3.75 mg/kg/injection, schedule: Q04DX003 (ip), vehicle: saline with Tween-80).

For the compound `OCCCN1CCCCC1CO` (configuration not stated), the T/C (dose: 200.0 mg/kg/injection, schedule: Q01DX009 (ip), vehicle: saline) was 165 % of control.
